Experimental data: publication PMC4461206 (Acta Crystallographica Section D: Biological Crystallography, 2015)
Changes are numbered by the printed parent chain.

How the values were obtained:
[1] = biological target: T1, AcdDPN7 (3-sulfinopropionyl-coenzyme A desulfinase) (Advenella mimigardefordensis, UniProt K4L7X3); test: X-ray crystal structure, […] A; assay type: binding; details: co-crystallized and soaked with succinyl-CoA, which was hydrolysed; only CoA seen in the active site (monomers A, B, D, E, F), occupancy 0.43-0.59; pH 6.5
T1 construct: gene acd; His6-tagged, pET-23a::acdDPN7, E. coli BL21(DE3) pLysS; homotetramer 150-200 kDa, one FAD per subunit; residues 2-392 superimposed in the structure

[2] = biological target: T1, AcdDPN7 (3-sulfinopropionyl-coenzyme A desulfinase); test: X-ray crystal structure, […] A; assay type: binding; details: noncovalent, one per subunit, site shared by two monomers; pH 6.5
[3] = biological target: T1, AcdDPN7 (3-sulfinopropionyl-coenzyme A desulfinase); test: DTNB sulfite-release assay, […] nm; assay type: biochemical; details: 50 mM Tris-HCl pH 7.4, 30 C, 0.2 mM DTNB, 0.1 mM 3SP-CoA, with or without O2
[4] = biological target: the molecule itself; test: crystal structure; apo enzyme at 1.89 Å (two monomers in the asymmetric unit) and complex with CoA at 2.30 Å (six monomers, three dimers); 0.1 M Bis-tris pH 6.5, PEG 3350; 100 K
[5] = biological target: the molecule itself; test: SEC; wild-type Acd_(DPN7) and Acd_(DPN7_R84K) run side by side; conditions not told for this run

CC(C)(COP(=O)(O)OP(=O)(O)OC[C@H]1O[C@@H](n2cnc3c(N)ncnc32)[C@H](O)[C@@H]1OP(=O)(O)O)[C@@H](O)C(=O)NCCC(=O)NCCS [CoA]
X-ray crystal structure, 2.30 A [1]: In the active sites of AcdDPN7 monomers A, B, D, E and F only the CoA group

Cc1cc2nc3c(=O)[nH]c(=O)nc-3n(C[C@H](O)[C@H](O)[C@H](O)COP(=O)(O)OP(=O)(O)OC[C@H]3O[C@@H](n4cnc5c(N)ncnc54)[C@H](O)[C@@H]3O)c2cc1C [FAD]
X-ray crystal structure, 1.89 A [2]: AcdDPN7 is a tetramer and each monomer has one FAD noncovalently bound to the polypeptide

CC(C)(COP(=O)(O)OP(=O)(O)OC[C@H]1O[C@@H](n2cnc3c(N)ncnc32)[C@H](O)[C@@H]1OP(=O)(O)O)[C@@H](O)C(=O)NCCC(=O)NCCSC(=O)CCS(=O)O [3SP-CoA]
DTNB sulfite-release assay, 412 nm [3]: AcdDPN7 showed no significant difference in reaction velocity in the presence or absence of O2

B1: 3-Sulfinopropionyl-coenzyme A (3SP-CoA) desulfinase from Advenella mimigardefordensis DPN7T (enzyme)
chain: MYELTPEQRTLQTQARELAQSVFASTAVQTDLTEQYPWDNVAQLRDAGFMGMMLPTSVGGRGLSTLDTVIVIEEMAKACATMGRITVDSNLGAIGAITKYGSEEQIKLAADLVLAGDKPAICISEPNAGSAASEMTTRADKNGDHYILNGEKYWITGGGVSKLHLIFARVFDDGVEQGIGAFITVLDDHGPEGLKVGRRLYAMGVRGIPETHLEFHDLKIHKSMMITFPDGLKRGFAALMSAYNAQRVGAGAVALGIAQCAFEEGVAYLKRREQFGRPLAEFQGLQWMVADMSVQLEAARLMLRSAAVSGETFPDINKAAQAKIFAAETANKVTNDALQFFGSSGYGRHNPMERHVRDARMFTIAGGTAQILRTQVASKILDMKLPQTRDGYLKAAQNSKR
stoichiometry N [4]: 4

B2: Acd_(DPN7_R84K) (enzyme)
chain: B1 chain with R84K
stoichiometry N [5]: 4
